The source of these data is the NIST ThermoML archive (doi:10.1016/j.jct.2005.07.006).

The conditions of series [1]: Crystal; DTA.
The nature of series [2]: Molar enthalpy of transition or fusion. Particulars: Crystal; DSC.

± gives the expanded uncertainty stated by the source.

On to `N#Cc1nccnc1C#N` [2,3-pyrazinedicarbonitrile], for which the Triple point temperature in series [1] is on record as 405.06 ± 0.39 K. The “Molar enthalpy of transition or fusion” value in series [2] came out at 4.73 ± 0.179 kcal/mol.
